Drawing on patent publication US10752612B2, “PLK4 inhibitors” (LUDWIG INSTITUTE FOR CANCER RESEARCH LTD, priority 2015, dated 2020), this text covers IC50 for 30 molecules.

For this assay, the target named is T1, human Plk4 kinase domain (aa 2-275) (Homo sapiens, UniProt O00444).
T1 construct: purified 6×His-tagged human Plk4 kinase domain (aa 2-275); 6xHis; made in house; host or cells: E. coli
T1 sequence (O00444 2-275): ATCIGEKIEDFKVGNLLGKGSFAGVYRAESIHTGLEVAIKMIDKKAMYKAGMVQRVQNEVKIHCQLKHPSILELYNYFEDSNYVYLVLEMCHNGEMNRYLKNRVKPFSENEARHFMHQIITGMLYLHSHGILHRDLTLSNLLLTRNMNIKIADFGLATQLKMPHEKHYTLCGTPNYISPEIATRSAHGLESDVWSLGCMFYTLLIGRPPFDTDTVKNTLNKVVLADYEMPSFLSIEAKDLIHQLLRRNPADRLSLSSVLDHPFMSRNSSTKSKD
Kind of assay: Plk4 kinase assay (ADP-Glo). It is filed as biochemical. The note with it: Table 1. The essentials: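 Enzyme at 2.5-10 nM final, pH 8.0, reacted 4-16 hours at 25° C; ADP generation read by ADP-Glo luminescence. Ki derived from IC50 by Cheng-Prusoff or, for tight binders, Copeland formalism.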
For orientation: In ADP-Glo the light output rises with the ADP produced.

Where only a bound is given, the exact number is not on record here.

By IC50 is commonly meant the point on the concentration scale where inhibition reaches its midpoint. For `COc1c(Nc2cc(C)[nH]n2)nc(Sc2ccc(NC(C)=O)cc2)nc1N1CCN(CCN2CCN(C)CC2)CC1`, the concentration for half-maximal inhibition (IC50) is less than 1000 nM. Next, `COc1c(Nc2cc(C)[nH]n2)nc(Sc2ccc(NC(C)=O)cc2)nc1N1CCN(CCCN(C)C)CC1`: less than 1000 nM; `CNC(=O)Nc1ccc(Sc2nc(Nc3cc(C)[nH]n3)c(C)c(N3CCOCC3)n2)cc1`: less than 1000 nM; `COc1c(Nc2cc(C)[nH]n2)nc(Sc2ccc(NC(=O)C3CC3)cc2)nc1N1CCN(C(C)=O)CC1`: less than 1000 nM. Next, `CC(=O)Nc1ccc(Sc2nc(Nc3cc(C)[nH]n3)c(C)c(N3CCN(C)CC3)n2)cc1`: less than 1000 nM; `CCOc1c(Nc2cc(C)[nH]n2)nc(Sc2ccc(NC(=O)C3CC3)cc2)nc1N1CCN(C(C)=O)CC1`: 100 to 1000 nM; `COc1c(Nc2cc(C)[nH]n2)nc(Sc2ccc(S(C)(=O)=O)cc2)nc1N1CCC(CCN(C)C)CC1`: less than 1000 nM. Next, `COC(=O)c1cccc(CS(=O)(=O)c2ccc(Sc3nc(Nc4cc(C)[nH]n4)c(OC)c(N4CCOCC4)n3)c(F)c2)c1F`: less than 1000 nM; `CC(=O)Nc1ccc(Sc2nc(Nc3cc(C)[nH]n3)c(C)c(N3CCOC[C@H]3C)n2)cc1`: less than 1000 nM. `COCC(=O)N1CCN(c2nc(Sc3ccc(C)cc3)nc(Nc3cc(C)[nH]n3)c2C)CC1` had an IC50 of less than 1000 nM. In turn, `Cc1cc(Nc2nc(Sc3ccc(NC(=O)C4CCC4)cc3)nc(N3CCN(C)CC3)c2C)n[nH]1` had an IC50 of less than 1000 nM. Next, `CC(=O)Nc1ccc(Sc2nc(Nc3cc(C)[nH]n3)c(C)c(N3CCC(C)(O)CC3)n2)cc1`: less than 1000 nM; `COCCNc1nc(Sc2ccc(NC(=O)C3CC3)cc2)nc(Nc2cc(C)[nH]n2)c1OC`: less than 1000 nM. Next, `COc1c(Nc2cc(C)[nH]n2)nc(Sc2ccc(S(=O)(=O)Cc3cccc(F)c3)cc2)nc1N1CCN(CCN(C)C)CC1`: less than 1000 nM; `CC(=O)Nc1ccc(Sc2nc(Nc3cc(C)[nH]n3)c(C)c(N3CCCCC3C)n2)cc1` (stereo not drawn): less than 1000 nM; `COc1c(Nc2cc(C)[nH]n2)nc(Sc2ccc(NC(=O)C3CC3)cc2)nc1N1CCNCC1`: less than 1000 nM. The result for `COc1c(Nc2cc[nH]n2)nc(Sc2ccc(S(=O)(=O)Cc3ccccc3)cc2)nc1N1CCN(CCN(C)C)CC1` reads less than 1000 nM; that for `Cc1cc(Nc2nc(Sc3ccc(NC(=O)C4CC4)cc3)nc(N3CCN(CCN(C)C)CC3)c2C)n[nH]1`, less than 1000 nM; that for `COc1c(Nc2cc(C)[nH]n2)nc(Sc2ccc(C(=O)Nc3cccc([N+](=O)[O-])c3F)cc2F)nc1N1CCOCC1`, less than 1000 nM. Molecule `COCC(=O)N1CCN(c2nc(Sc3ccc(N)cc3)nc(Nc3cc(C)[nH]n3)c2C)CC1` displayed an IC50 of less than 1000 nM. `Cc1cc(Nc2nc(Sc3ccc(NC(=O)C4CC4)cc3)nc(N3CCN(C)CC3)c2C)n[nH]1`: the IC50 is less than 1000 nM.

In the case of `COc1c(Nc2cc(C)[nH]n2)nc(Sc2ccc(NC(C)=O)cc2)nc1N1CCC(CCN2CCOCC2)CC1`, the IC50 was less than 1000 nM. Next, `CC(=O)Nc1ccc(Sc2nc(Nc3cc(C)[nH]n3)c(C)c(N3CCN(C4CCN(C)CC4)CC3)n2)cc1`: less than 1000 nM. Next, `COCCN1CCN(c2nc(Sc3ccc(NC(=O)C4CC4)cc3)nc(Nc3cc(C)[nH]n3)c2OC)CC1`: less than 1000 nM.

`COC(=O)c1ccc(Sc2nc(Nc3cc(C)[nH]n3)c(OC)c(N3CCN(CCN(C)C)CC3)n2)cc1` displayed an IC50 of less than 1000 nM. Next, `COc1c(Nc2cc(C)[nH]n2)nc(Sc2ccc(S(=O)(=O)Cc3cc(F)cc([N+](=O)[O-])c3)cc2)nc1N1CCN(CCN(C)C)CC1`: less than 1000 nM; `CCS(=O)(=O)c1ccc(Sc2nc(Nc3cc(C)[nH]n3)c(OC)c(N3CCN(CCN(C)C)CC3)n2)c(Cl)c1`: less than 1000 nM. Next, `COc1c(Nc2cc(C)[nH]n2)nc(Sc2ccc(S(C)(=O)=O)cc2F)nc1N1CCC(CCN(C)C)CC1`: less than 1000 nM; `COc1c(Nc2cc(C)[nH]n2)nc(Sc2ccc(S(=O)(=O)Cc3ccccc3)cc2)nc1N1CCN(Cc2ccncc2)CC1`: less than 1000 nM. The result for `COc1c(Nc2cc(C)[nH]n2)nc(Sc2ccc(NC(=O)C3CCCC3)cc2)nc1N1CCNCC1` reads less than 1000 nM.
